Residues, ends and D or L forms follow the SMILES beside them.
Key:
[1] = tested on: L. infantum promastigotes; assay: microbe, parasite or virus in culture; type: cell-based, Leishmania infantum; settings: for Selectivity index (CC50/IC50): CC50 in human umbilical vein endothelial cells / IC50 for promastigotes; for IC50: L. infantum promastigotes, in vitro; for growth inhibition: promastigotes, 72 h, 100 µM
Procedure: L. infantum (MHOM/ES/2016/CATB101) promastigotes were maintained at 26°C in complete Schneider’s medium (Schneider’s insect medium supplemented with 10% FBS, 25 µg/mL gentamycin, 1% penicillin-streptomycin, and 1% sterile human urine, pH 6.7). For growth inhibition assays, promastigotes were used in the logarithmic growth phase, whereas for the infection of macrophages and generation of amastigotes they were used in the stationary phase. Axenic amastigotes were obtained following established protocols ([40], [57][–][59]); briefly, 1 × 10^7 promastigotes/mL in stationary phase were cultured in Schneider’s insect medium supplemented with 20% FBS, 25 µg/mL gentamycin, and 3.9 g/L of 2-(N-morpholino)ethanesulfonic acid, at pH 5.4 and 37°C. After 48 h, the typical rounded morphology of axenic amastigotes and their flagellum shortening could be observed. This culture was used within a week after its preparation.
In 96-well microtiter plates (Nunclon Delta surface; Thermo Fisher Scientific Inc.), serial dilutions (1:2) of the drugs or peptides were performed, either free or loaded in nanoformulations, in 100 µL of complete Schneider’s medium, to which one volume of 2 × 10^6 logarithmic growth-phase L. infantum promastigotes/mL in the same buffer was added. After 48 h, resazurin sodium salt was incorporated at a final concentration of 0.00125% and the plates were incubated at 26°C for another 24 h, when fluorescence from resorufin was measured as described above.

in vitro = type: cell-based; settings: human umbilical vein endothelial cells; for CC50: 48 h
Procedure: Human umbilical vein endothelial cells were maintained in M-199 supplemented with 10% fetal bovine serum (FBS) and 1% penicillin-streptomycin at 37°C, 5% CO2, and seeded in 96-well plates at a density of 50,000 cells/mL. After allowing cell adherence for 24 h, the medium was removed, and drugs or nanoformulations were added in M-199 supplemented with 1% penicillin-streptomycin. Plates were incubated for 48 h, and then, the medium in each well was replaced by 100 µL of M-199 containing penicillin-streptomycin and 0.00125% resazurin sodium salt (Sigma-Aldrich Corporation). Plates were incubated for 4 h, and resorufin fluorescence emission was measured (λex/em: 535/590 nm) in a Tecan Infinite 200 PRO equipment (Tecan Trading AG).

L. infantum amastigotes = assay: Amastigote growth inhibition assay (parasite rescue and transformation, RAW 264.7 macrophages); type: cell-based, Leishmania infantum; settings: in vitro
Procedure: Compound activity on amastigotes was determined following the parasite rescue and transformation assay ([61]). RAW 264.7 macrophages were seeded in 96-well microtiter plates at 10^5 cells/mL of DMEM supplemented with 10% FBS and 1% penicillin-streptomycin (complete DMEM, DMEMc) in a final volume of 200 µL per well. After an overnight incubation (37°C, 5% CO2) to allow cell adherence, the medium was removed and 10^6 L. infantum promastigotes/mL were added (1:10 macrophage:promastigote ratio) in DMEM supplemented with 2% FBS and 1% penicillin-streptomycin (DMEM 2% FBS). After 24 h, parasites not internalized by macrophages were removed by washing (3×, PBS) and dilutions in DMEM 2% FBS of free or liposome-encapsulated compounds were added. After 48 h, the medium was removed, cells were washed three times with PBS, and 40 µL of 0.05% SDS in complete Schneider’s medium was added; after 40 s, 160 additional µL/well of complete Schneider’s medium was added and plates were incubated at 26°C for another 48 h. Then, resazurin sodium salt was incorporated at a final concentration of 0.00125% and plates were incubated for 24 h more in the same conditions. Afterwards, resorufin fluorescence was measured as above.

promastigotes = tested on: promastigotes; parameters: method as in PMID 16316700; settings: cited from earlier work
[2] = Leishmania infantum, RAW264.7, L. infantum amastigotes in RAW 264.7 macrophages
[3] = L. infantum amastigotes in RAW 264.7 macrophages

Compound	Selectivity index (CC50/IC50) [1]	IC50 ([1]; Leishmania infantum) [nM]	CC50 (in vitro) [nM]	IC50 (L. infantum amastigotes; [2]) [nM]	IC50 [1] [nM]	CC50 at 48 h (in vitro) [nM]	IC50 (L. infantum amastigotes; [3]) [nM]	other results
COc1cc2c(cc1OC)C(=O)C(CC1CCN(CCCNc3c4c(nc5cc(Cl)ccc35)CCCC4)CC1)C2 (stereo not drawn) [DONE3TCl]	6.0	2090 ± 400	12600 ± 2200	620 ± 80	–	–	–	–
CC1=CC2Cc3nc4cc(Cl)ccc4c(NCCCN(C)CCCNc4c5c(nc6cc(Cl)ccc46)CCCC5)c3C(C1)C2 (stereo not drawn) [HUPNTCl]	3.1	2030 ± 190	6300 ± 500	1040 ± 210	–	–	–	–
C[C@@H]1[C@H](O)[C@@H](C)/C=C/C=C/C=C/C=C/C=C/C=C/C=C/[C@H](O[C@@H]2O[C@H](C)[C@@H](O)[C@H](N)[C@@H]2O)C[C@@H]2O[C@](O)(C[C@@H](O)C[C@@H](O)[C@H](O)CC[C@@H](O)C[C@@H](O)CC(=O)O[C@H]1C)C[C@H](O)[C@H]2C(=O)O [Amphotericin B]	–	–	–	–	–	–	–	IC50 (promastigotes): 40 nM
CC1=CC2Cc3nc4cc(Cl)ccc4c(NCCCN(C)CCCNc4c5c(nc6ccccc46)CCCC5)c3C(C1)C2 (stereo not drawn) [HUPNTH]	–	–	–	–	2370 ± 1400	3400 ± 1000	1520 ± 660	–
CC[C@H](C)[C@H](NC(=O)[C@H](Cc1ccccc1)NC(=O)[C@H](CC(N)=O)NC(=O)[C@H](CC(=O)O)NC(C)=O)C(=O)N[C@@H](Cc1ccccc1)C(=O)NCC(=O)N[C@@H](CCC(N)=O)C(N)=O [DNFIFGQ, Acetyl-DNFIFGQ-amide] (Ac-DNFIFGQ-NH2)	–	–	–	–	–	–	–	growth inhibition [1]: 2%
CC1=CC2Cc3nc4ccccc4c(NCCCCCCCCCCNc4c5c(nc6ccccc46)CCCC5)c3C(C1)C2 (stereo not drawn) [HUPH10TH]	–	–	–	–	720 ± 110	3400 ± 100	970 ± 210	–
CC1=CC2Cc3nc4cc(Cl)ccc4c(NCCCCCCCCNc4c5c(nc6ccccc46)CCCC5)c3C(C1)C2 (stereo not drawn) [HUP8TH]	4.9	990 ± 470	4900 ± 1300	1630 ± 340	–	–	–	–
CC[C@H](C)[C@H](NC(=O)[C@H](C)NC(C)=O)C(=O)N[C@@H](CO)C(=O)N[C@H](C(=O)N[C@@H](Cc1ccccc1)C(=O)N[C@@H](Cc1ccccc1)C(=O)N[C@@H](CC(C)C)C(=O)N[C@@H](CCC(=O)O)C(=O)N1CCC[C@H]1C(N)=O)C(C)C (Ac-AISVFFLEP-NH2)	–	–	–	–	–	–	–	growth inhibition [1]: 0%
CC1=CC2Cc3nc4cc(Cl)ccc4c(NCCCCCCCNc4c5c(nc6ccccc46)CCCC5)c3C(C1)C2 (stereo not drawn) [HUP7TH]	–	–	–	–	1230 ± 420	7800 ± 3400	920 ± 380	–

— paper PMC10916400, “Effect of the aggregated protein dye YAT2150 on Leishmania parasite viability” (Antimicrobial Agents and Chemotherapy, 2024)
